The subject of test [1] is Enterococcus faecalis. Briefly: (§1) Inhibition of Enterococcus faecalis recombinant type 1 methionine aminopeptidase expressed in Escherichia coli BL21 (DE3) using Met-pNA substrate.
Test [2] in a line: as §1.
Test [3] has as its system Enterococcus faecalis. In words: Maximal inhibition of Enterococcus faecalis recombinant type 1 methionine aminopeptidase expressed in Escherichia coli BL21 (DE3) using Met-pNA substrate at 10 uM in presence of CoCl2.
The subject of test [4] is Enterococcus faecalis. Briefly: Inhibition of Enterococcus faecalis recombinant type 1 methionine aminopeptidase expressed in Escherichia coli BL21 (DE3) using Met-pNA substrate by spectral study in presence of CoCl2.
Test [5] relates to Enterococcus faecalis. Briefly: Inhibition of Enterococcus faecalis recombinant type 1 methionine aminopeptidase expressed in Escherichia coli BL21 (DE3) using Met-pNA substrate by spectral study in presence of Mn2+.

The source made the active and inactive calls. The calls are words filed in the database; no cut-off is given here.

As a reminder, the inhibition is the drop in the measured response relative to a control, in per cent. `O=C([O-])CC(O)(CC(=O)[O-])C(=O)[O-].[Na+].[Na+].[Na+]`: the inhibition result in the test on Enterococcus faecalis [1] is “inactive”.

`c1cc(-c2ccncc2)ccn1`: in the test on Enterococcus faecalis [1], the inhibition result is “inactive”.

What is called IC50 is the midpoint of a concentration-inhibition curve. Regarding `c1ccc(-c2ccccn2)nc1` [DIPYRIDYL], the 50% inhibitory concentration (IC50) in test [2] was determined as 6.67 µM. In the test on Enterococcus faecalis [3], the inhibition came to 75%. For the same compound, the inhibition result in the test on Enterococcus faecalis [4] and with Enterococcus faecalis [5] was “Active” each time.

(Values after ChEMBL document CHEMBL3217429, “Structural studies of Enterococcus faecalis methionine aminopeptidase and design of microbe specific 2,2-bipyridine based inhibitors” (Medchemcomm, 2012).)
